From patent US6441195B1, “Substituted sulphonylamino(thio) carbonyl compounds” (Bayer Aktiengesellschaft, priority 1995, dated 2002)

Columns and labels:
Type in all cases: in vivo
Sorghum = assay: Pre-emergence test/Greenhouse, Sorghum; details: after three weeks
Method: (§1) To produce a suitable preparation of the active compound, 1 part by weight of active compound is mixed with the stated amount of solvent, the stated amount of emulsifier is added and the concentrate is diluted with water to the desired concentration.
(§2) Seeds of the test plants are sown in normal soil. After about 24 hours, the soil is watered with the preparation of active compound. Advantageously, the amount of water per unit area is kept constant. The active compound concentration in the preparation is not important, only the active compound appliation rate per unit area matters.
(§3) After three weeks, the degree of damage to the plants is rated in % damage in comparison to the development of the untreated control.
(§4) 0%=no action (like untreated control)

weeds = assay: Pre-emergence test (greenhouse), activity against weeds; details: in words
Summary of the method: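 Three weeks after treatment, % damage relative to untreated plants is scored, 0% meaning no effect. Seeds in normal soil received, roughly one day post-sowing, an aqueous dilution of an acetone/emulsifier concentrate, with the rate per unit area, not concentration, being the relevant dose.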

Poa = assay: Pre-emergence test/Greenhouse, Poa; details: after three weeks
Summary of the method: (§5)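 Emulsifier-formulated compound applied by soil watering ~24 h after sowing; damage scored at three weeks as % of untreated control.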

Lolium = assay: Pre-emergence test/Greenhouse, Lolium; details: after three weeks
Summary of the method: as §5

Soya beans = assay: Pre-emergence test/Greenhouse, Soya beans; details: in vivo
Method: as §1, §2, §3, §4

Ambrosia = assay: Pre-emergence test/Greenhouse, Ambrosia; details: after three weeks
Summary of the method: as §5

Matricaria = assay: Pre-emergence test/Greenhouse, Matricaria; details: after three weeks
Summary of the method: as §5

Solanum = assay: Pre-emergence test/Greenhouse, Solanum; details: after three weeks
Summary of the method: as §5

Maize = assay: Pre-emergence test/Greenhouse, Maize; details: in vivo
Summary of the method: as §5

## CCOc1nn(C(=O)NS(=O)(=O)c2c(C)cccc2C(=O)OC(C)C)c(=O)n1CC [Example 43]
Sorghum; 60 g of ai./ha
  degree of damage to the plants (% damage vs untreated control), Sorghum: 80%
weeds
  activity against weeds: very strong activity against weeds
Poa; 60 g of ai./ha
  degree of damage to the plants (% damage vs untreated control), Poa: 95%
Lolium; 60 g of ai./ha
  degree of damage to the plants (% damage vs untreated control), Lolium: 95%
Soya beans
  degree of damage to the plants (% damage vs untreated control), Soya beans: 10%
Ambrosia; 60 g of ai./ha
  degree of damage to the plants (% damage vs untreated control), Ambrosia: 95%
Matricaria; 60 g of ai./ha
  degree of damage to the plants (% damage vs untreated control), Matricaria: 95%
Solanum; 60 g of ai./ha
  degree of damage to the plants (% damage vs untreated control), Solanum: 95%

## CCOc1nn(C(=O)NS(=O)(=O)c2c(C)csc2C(=O)OC(C)C)c(=O)n1C [Example 76]
Sorghum; 60 g of ai./ha
  degree of damage to the plants (% damage vs untreated control), Sorghum: 95%
weeds
  activity against weeds: very strong activity against weeds
Lolium; 60 g of ai./ha
  degree of damage to the plants (% damage vs untreated control), Lolium: 95%
Soya beans
  degree of damage to the plants (% damage vs untreated control), Soya beans: 30%
Matricaria; 60 g of ai./ha
  degree of damage to the plants (% damage vs untreated control), Matricaria: 100%
Maize
  degree of damage to the plants (% damage vs untreated control), Maize: 0%
Solanum; 60 g of ai./ha
  degree of damage to the plants (% damage vs untreated control), Solanum: 95%

## CCOc1nn(C(=O)NS(=O)(=O)c2c(C)csc2C(=O)OC(C)C)c(=O)n1CC [Example 86]
Sorghum; 125 g of ai./ha
  degree of damage to the plants (% damage vs untreated control), Sorghum: 70%
weeds
  activity against weeds: very strong activity against weeds
Lolium; 125 g of ai./ha
  degree of damage to the plants (% damage vs untreated control), Lolium: 80%
Soya beans
  degree of damage to the plants (% damage vs untreated control), Soya beans: 40%
Matricaria; 125 g of ai./ha
  degree of damage to the plants (% damage vs untreated control), Matricaria: 100%
Maize
  degree of damage to the plants (% damage vs untreated control), Maize: 10%
Solanum; 125 g of ai./ha
  degree of damage to the plants (% damage vs untreated control), Solanum: 95%

## COC(=O)c1cccc(C)c1S(=O)(=O)NC(=O)n1nc(SCC(F)(F)F)n(C)c1=O [Example 150]
Sorghum; 125 g of ai./ha
  degree of damage to the plants (% damage vs untreated control), Sorghum: 80%
weeds
  activity against weeds: very strong activity against weeds
Poa; 125 g of ai./ha
  degree of damage to the plants (% damage vs untreated control), Poa: 90%
Lolium; 125 g of ai./ha
  degree of damage to the plants (% damage vs untreated control), Lolium: 80%
Soya beans
  degree of damage to the plants (% damage vs untreated control), Soya beans: 10%
Ambrosia; 125 g of ai./ha
  degree of damage to the plants (% damage vs untreated control), Ambrosia: 70%
Matricaria; 125 g of ai./ha
  degree of damage to the plants (% damage vs untreated control), Matricaria: 80%
Solanum; 125 g of ai./ha
  degree of damage to the plants (% damage vs untreated control), Solanum: 80%

## COC(=O)c1cccc(C)c1S(=O)(=O)NC(=O)n1nc(OCC2CC2)n(C)c1=O [Example 167]
Sorghum; 60 g of ai./ha
  degree of damage to the plants (% damage vs untreated control), Sorghum: 95%
weeds
  activity against weeds: very strong activity against weeds
Poa; 60 g of ai./ha
  degree of damage to the plants (% damage vs untreated control), Poa: 95%
Lolium; 60 g of ai./ha
  degree of damage to the plants (% damage vs untreated control), Lolium: 80%
Soya beans
  degree of damage to the plants (% damage vs untreated control), Soya beans: 30%
Ambrosia; 60 g of ai./ha
  degree of damage to the plants (% damage vs untreated control), Ambrosia: 90%
Matricaria; 60 g of ai./ha
  degree of damage to the plants (% damage vs untreated control), Matricaria: 95%
Solanum; 60 g of ai./ha
  degree of damage to the plants (% damage vs untreated control), Solanum: 90%

## COc1nn(C(=O)NS(=O)(=O)c2c(C)cccc2C(=O)OC(C)C)c(=O)n1C [Example 16]
Sorghum; 30 g of ai./ha
  degree of damage to the plants (% damage vs untreated control), Sorghum: 90%
weeds
  activity against weeds: very strong activity against weeds
Poa; 30 g of ai./ha
  degree of damage to the plants (% damage vs untreated control), Poa: 95%
Lolium; 30 g of ai./ha
  degree of damage to the plants (% damage vs untreated control), Lolium: 95%
Soya beans
  degree of damage to the plants (% damage vs untreated control), Soya beans: 0%
Ambrosia; 30 g of ai./ha
  degree of damage to the plants (% damage vs untreated control), Ambrosia: 95%
Matricaria; 30 g of ai./ha
  degree of damage to the plants (% damage vs untreated control), Matricaria: 95%
Solanum; 30 g of ai./ha
  degree of damage to the plants (% damage vs untreated control), Solanum: 95%

## COC(=O)c1cccc(C)c1S(=O)(=O)NC(=O)n1nc(SCCF)n(C)c1=O [Example 152]
Sorghum; 125 g of ai./ha
  degree of damage to the plants (% damage vs untreated control), Sorghum: 95%
weeds
  activity against weeds: very strong activity against weeds
Poa; 125 g of ai./ha
  degree of damage to the plants (% damage vs untreated control), Poa: 95%
Lolium; 125 g of ai./ha
  degree of damage to the plants (% damage vs untreated control), Lolium: 95%
Soya beans
  degree of damage to the plants (% damage vs untreated control), Soya beans: 20%
Ambrosia; 125 g of ai./ha
  degree of damage to the plants (% damage vs untreated control), Ambrosia: 95%
Matricaria; 125 g of ai./ha
  degree of damage to the plants (% damage vs untreated control), Matricaria: 80%
Solanum; 125 g of ai./ha
  degree of damage to the plants (% damage vs untreated control), Solanum: 95%

## COC(=O)c1scc(C)c1S(=O)(=O)NC(=O)n1nc(OC(C)C)n(C)c1=O [Example 40]
weeds
  activity against weeds: very strong activity against weeds
Poa; 60 g of ai./ha
  degree of damage to the plants (% damage vs untreated control), Poa: 95%
Lolium; 60 g of ai./ha
  degree of damage to the plants (% damage vs untreated control), Lolium: 90%
Soya beans
  degree of damage to the plants (% damage vs untreated control), Soya beans: 30%
Ambrosia; 60 g of ai./ha
  degree of damage to the plants (% damage vs untreated control), Ambrosia: 95%
Matricaria; 60 g of ai./ha
  degree of damage to the plants (% damage vs untreated control), Matricaria: 95%
Maize
  degree of damage to the plants (% damage vs untreated control), Maize: 10%
Solanum; 60 g of ai./ha
  degree of damage to the plants (% damage vs untreated control), Solanum: 95%

## Cc1csc(C(=O)OC(C)C)c1S(=O)(=O)NC(=O)n1nc(OC(C)C)n(C)c1=O [Example 84]
Sorghum; 125 g of ai./ha
  degree of damage to the plants (% damage vs untreated control), Sorghum: 90%
weeds
  activity against weeds: very strong activity against weeds
Lolium; 125 g of ai./ha
  degree of damage to the plants (% damage vs untreated control), Lolium: 95%
Soya beans
  degree of damage to the plants (% damage vs untreated control), Soya beans: 30%
Matricaria; 125 g of ai./ha
  degree of damage to the plants (% damage vs untreated control), Matricaria: 95%
Maize
  degree of damage to the plants (% damage vs untreated control), Maize: 5%
Solanum; 125 g of ai./ha
  degree of damage to the plants (% damage vs untreated control), Solanum: 100%

## COC(=O)c1cccc(OC)c1S(=O)(=O)NC(=O)n1nc(OC(C)C)n(C2CC2)c1=O [Example 135]
Sorghum; 125 g of ai./ha
  degree of damage to the plants (% damage vs untreated control), Sorghum: 90%
weeds
  activity against weeds: very strong activity against weeds
Poa; 125 g of ai./ha
  degree of damage to the plants (% damage vs untreated control), Poa: 95%
Lolium; 125 g of ai./ha
  degree of damage to the plants (% damage vs untreated control), Lolium: 95%
Soya beans
  degree of damage to the plants (% damage vs untreated control), Soya beans: 40%
Ambrosia; 125 g of ai./ha
  degree of damage to the plants (% damage vs untreated control), Ambrosia: 90%
Matricaria; 125 g of ai./ha
  degree of damage to the plants (% damage vs untreated control), Matricaria: 90%
Solanum; 125 g of ai./ha
  degree of damage to the plants (% damage vs untreated control), Solanum: 95%

## COC(=O)c1cccc(C)c1S(=O)(=O)NC(=O)n1nc(OCC2CC2)n(C2CC2)c1=O [Example 172]
Sorghum; 125 g of ai./ha
  degree of damage to the plants (% damage vs untreated control), Sorghum: 90%
weeds
  activity against weeds: very strong activity against weeds
Poa; 125 g of ai./ha
  degree of damage to the plants (% damage vs untreated control), Poa: 95%
Lolium; 125 g of ai./ha
  degree of damage to the plants (% damage vs untreated control), Lolium: 90%
Soya beans
  degree of damage to the plants (% damage vs untreated control), Soya beans: 60%
Ambrosia; 125 g of ai./ha
  degree of damage to the plants (% damage vs untreated control), Ambrosia: 90%
Matricaria; 125 g of ai./ha
  degree of damage to the plants (% damage vs untreated control), Matricaria: 95%
Solanum; 125 g of ai./ha
  degree of damage to the plants (% damage vs untreated control), Solanum: 95%

## CCOn1c(CC)nn(C(=O)NS(=O)(=O)c2c(C)cccc2C(=O)OC)c1=O [Example 155]
Sorghum; 60 g of ai./ha
  degree of damage to the plants (% damage vs untreated control), Sorghum: 95%
weeds
  activity against weeds: very strong activity against weeds
Poa; 60 g of ai./ha
  degree of damage to the plants (% damage vs untreated control), Poa: 95%
Lolium; 60 g of ai./ha
  degree of damage to the plants (% damage vs untreated control), Lolium: 95%
Soya beans
  degree of damage to the plants (% damage vs untreated control), Soya beans: 40%
Ambrosia; 60 g of ai./ha
  degree of damage to the plants (% damage vs untreated control), Ambrosia: 90%
Matricaria; 60 g of ai./ha
  degree of damage to the plants (% damage vs untreated control), Matricaria: 80%
Solanum; 60 g of ai./ha
  degree of damage to the plants (% damage vs untreated control), Solanum: 95%

## C#CCSc1nn(C(=O)NS(=O)(=O)c2c(C)cccc2C(=O)OC)c(=O)n1C [Example 161]
weeds
  activity against weeds: very strong activity against weeds
Poa; 60 g of ai./ha
  degree of damage to the plants (% damage vs untreated control), Poa: 95%
Lolium; 60 g of ai./ha
  degree of damage to the plants (% damage vs untreated control), Lolium: 95%
Soya beans
  degree of damage to the plants (% damage vs untreated control), Soya beans: 20%
Ambrosia; 60 g of ai./ha
  degree of damage to the plants (% damage vs untreated control), Ambrosia: 95%
Matricaria; 60 g of ai./ha
  degree of damage to the plants (% damage vs untreated control), Matricaria: 95%
Maize
  degree of damage to the plants (% damage vs untreated control), Maize: 0%
Solanum; 60 g of ai./ha
  degree of damage to the plants (% damage vs untreated control), Solanum: 95%

## CCCc1nn(C(=O)NS(=O)(=O)c2c(C)csc2C(=O)OC)c(=O)n1OC [Example 39]
weeds
  activity against weeds: very strong activity against weeds
Poa; 60 g of ai./ha
  degree of damage to the plants (% damage vs untreated control), Poa: 90%
Lolium; 60 g of ai./ha
  degree of damage to the plants (% damage vs untreated control), Lolium: 95%
Soya beans
  degree of damage to the plants (% damage vs untreated control), Soya beans: 20%
Ambrosia; 60 g of ai./ha
  degree of damage to the plants (% damage vs untreated control), Ambrosia: 95%
Matricaria; 60 g of ai./ha
  degree of damage to the plants (% damage vs untreated control), Matricaria: 70%
Maize
  degree of damage to the plants (% damage vs untreated control), Maize: 0%
Solanum; 60 g of ai./ha
  degree of damage to the plants (% damage vs untreated control), Solanum: 90%
